Laboratory results published in patent publication US20230183193A1, “4-DIFLUOROMETHYL BENZOYL AMIDES WITH HERBICIDAL ACTION” (BAYER CROPSCIENCE AKTIENGESELLSCHAFT, priority 2017, published 2023).

Experiments:
Type in all cases: in vivo
Cyperus serotinus = test: Pre-emergence herbicidal action, CYPES; conditions: for Herbicidal efficacy against CYPES: Table L; for herbicidal activity CYPES: scored visually after 3 weeks vs untreated controls
Procedure, shortened: (§1)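 Weed seeds were laid out in sandy loam and covered with soil, then the soil surface was treated with an aqueous suspension or emulsion of the formulated compound containing 0.2% wetting agent. Pots stayed in the greenhouse for 3 weeks before damage was rated visually against untreated plants.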

Amaranthus retroflexus [1] = test: Pre-emergence herbicidal action, AMARE; conditions: dosage 320 g/ha, scored visually after 3 weeks vs untreated controls
Procedure, shortened: as §1

LOLMU = test: Pre-emergence herbicidal action, LOLMU; conditions: Table L
Stellaria media [2] = test: Pre-emergence herbicidal action, STEME; conditions: dosage 320 g/ha, scored visually after 3 weeks vs untreated controls
Procedure, shortened: as §1

Viola tricolor [3] = test: Post-emergence herbicidal action, VIOTR; conditions: for herbicidal activity VIOTR: 80 g/ha, Table D; for Herbicidal efficacy against VIOTR: Table M
Procedure, shortened: (§2)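 Visual percent activity relative to untreated controls, assessed about 3 weeks after foliar treatment, where 0% equals control growth and 100% equals death. Compounds, as wettable powders or emulsion concentrates, are sprayed onto one-leaf-stage plants in sandy loam.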

Alopecurus myosuroides [4] = test: Pre-emergence herbicidal action, ALOMY; conditions: for Herbicidal efficacy against ALOMY: Table L; for herbicidal activity ALOMY: scored visually after 3 weeks vs untreated controls
Procedure, shortened: as §1

Veronica persica = test: Post-emergence herbicidal action, VERPE; conditions: Table M
Procedure: (§3) Seeds of monocotyledonous and dicotyledonous weed and crop plants are laid out in sandy loam soil in wood-fiber pots, covered with soil and cultivated in a greenhouse under good growth conditions. 2 to 3 weeks after sowing, the test plants are treated at the one-leaf stage. The compounds of the invention, formulated in the form of wettable powders (WP) or as emulsion concentrates (EC), are then sprayed onto the green parts of the plants in the form of an aqueous suspension or emulsion at a water application rate equating to […], with addition of 0.2% wetting agent. After the test plants have been left to stand in the greenhouse under optimal growth conditions for about 3 weeks, the action of the preparations is assessed visually in comparison to untreated controls (herbicidal action in percent (%): 100% activity=the plants have died, 0% activity=like control plants). […] At the same time, inventive compounds leave Gramineae crops such as barley, wheat, rye, millet/sorghum, corn or rice virtually undamaged when applied post-emergence, even at high active compound dosages. In addition, some substances are also harmless to dicotyledonous crops such as soya, cotton, oilseed rape, sugar beet or potatoes. Some of the compounds according to the invention have high selectivity and are therefore suitable for controlling unwanted vegetation in agricultural crops by the post-emergence method. The data of Tables C and D below illustrate, in an exemplary manner, the […] herbicidal action of the compounds according to the invention, the herbicidal activity being stated in percent.
(§4) For comparison, the herbicidal activity of numerous compounds according to the invention was tested with the structurally closest compounds known from the documents WO 2011/035874, WO 2012/028579 and WO 2012/126932, by the pre- and post-emergence method.

Abutilon theophrasti [5] = test: Pre-emergence herbicidal action, ABUTH; conditions: dosage 320 g/ha, scored visually after 3 weeks vs untreated controls
Procedure, shortened: as §1

Setaria viridis [6] = test: Pre-emergence herbicidal action, SETVI; conditions: for Herbicidal efficacy against SETVI: Table L; for herbicidal activity SETVI: scored visually after 3 weeks vs untreated controls
Procedure, shortened: as §1

Polygonum convolvulus = test: Pre-emergence herbicidal action, POLCO; conditions: Table L
Procedure, shortened: as §1

Setaria viridis [7] = test: Post-emergence herbicidal action, SETVI; conditions: for herbicidal activity SETVI: 80 g/ha, Table C; for Herbicidal efficacy against SETVI: Table M
Procedure, shortened: as §2

Abutilon theophrasti [8] = test: Post-emergence herbicidal action, ABUTH; conditions: 80 g/ha, Table D
Procedure, shortened: as §2

Avena fatua [9] = test: Pre-emergence herbicidal action, AVEFA; conditions: for Herbicidal efficacy against AVEFA: Table L; for herbicidal activity AVEFA: scored visually after 3 weeks vs untreated controls
Procedure, shortened: as §1

Avena fatua [10] = test: Post-emergence herbicidal action, AVEFA; conditions: for herbicidal activity AVEFA: 80 g/ha, Table C; for Herbicidal efficacy against AVEFA: Table M
Procedure, shortened: as §2

Amaranthus retroflexus [11] = test: Post-emergence herbicidal action, AMARE; conditions: 80 g/ha, Table D
Procedure, shortened: as §2

ECHCG = test: Post-emergence herbicidal action, ECHCG; conditions: 80 g/ha, Table C
Procedure, shortened: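 Weed and crop plants grown in sandy loam in the greenhouse, treated at the one-leaf stage 2–3 weeks after sowing. Damage scored visually after about 3 weeks vs untreated controls (0% = control, 100% = dead).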

Viola tricolor [12] = test: Pre-emergence herbicidal action, VIOTR; conditions: for Herbicidal efficacy against VIOTR: Table L; for herbicidal activity VIOTR: scored visually after 3 weeks vs untreated controls
Procedure, shortened: as §1

Stellaria media [13] = test: Post-emergence herbicidal action, STEME; conditions: 80 g/ha, Table D
Procedure, shortened: as §2

Matricaria inodora [14] = test: Pre-emergence herbicidal action, MATIN; conditions: dosage 320 g/ha, scored visually after 3 weeks vs untreated controls
Procedure, shortened: as §1

Matricaria inodora [15] = test: Post-emergence herbicidal action, MATIN; conditions: Table M
Procedure: as §3, §4

Pharbitis purpureum = test: Post-emergence herbicidal action, PHBPU; conditions: 80 g/ha, Table D
Procedure, shortened: as §2

Alopecurus myosuroides [16] = test: Post-emergence herbicidal action, ALOMY; conditions: for Herbicidal efficacy against ALOMY: Table M
Procedure, shortened: as §2

## Cc1nnc(NC(=O)c2ccc(C(F)F)c([S+](C)[O-])c2C)o1 (stereo not shown) [Example 7-2]
Cyperus serotinus; dosage 80 g/ha
  Herbicidal efficacy against CYPES: 80
Cyperus serotinus; dosage 320 g/ha
  herbicidal activity CYPES: 90%
Amaranthus retroflexus [1]
  herbicidal activity AMARE: 100%
LOLMU; dosage 80 g/ha
  Herbicidal efficacy against LOLMU: 10
Stellaria media [2]
  Herbicidal activity STEME: 80%
Viola tricolor [3]
  herbicidal activity VIOTR: 100%
Viola tricolor [3]; dosage 20 g/ha
  Herbicidal efficacy against VIOTR: 100
Alopecurus myosuroides [4]; dosage 80 g/ha
  Herbicidal efficacy against ALOMY: 80
Alopecurus myosuroides [4]; dosage 320 g/ha
  herbicidal activity ALOMY: 90%
Veronica persica; dosage 20 g/ha
  Herbicidal efficacy against VERPE: 100
Abutilon theophrasti [5]
  herbicidal activity ABUTH: 100%
Setaria viridis [6]; dosage 80 g/ha
  Herbicidal efficacy against SETVI: 90
Setaria viridis [6]; dosage 320 g/ha
  herbicidal activity SETVI: 100%
Polygonum convolvulus; dosage 80 g/ha
  Herbicidal efficacy against POLCO: 30
Setaria viridis [7]
  herbicidal activity SETVI: 100%
Setaria viridis [7]; dosage 20 g/ha
  Herbicidal efficacy against SETVI: 100
Abutilon theophrasti [8]
  herbicidal activity ABUTH: 100%
Avena fatua [9]; dosage 80 g/ha
  Herbicidal efficacy against AVEFA: 70
Avena fatua [9]; dosage 320 g/ha
  herbicidal activity AVEFA: 90%
Avena fatua [10]
  herbicidal activity AVEFA: 90%
Avena fatua [10]; dosage 20 g/ha
  Herbicidal efficacy against AVEFA: 70
Amaranthus retroflexus [11]
  herbicidal activity AMARE: 100%
ECHCG
  Herbicidal activity ECHCG: 90%
Viola tricolor [12]; dosage 80 g/ha
  Herbicidal efficacy against VIOTR: 100
Viola tricolor [12]; dosage 320 g/ha
  herbicidal activity VIOTR: 100%
Stellaria media [13]
  Herbicidal activity STEME: 100%
Matricaria inodora [14]
  herbicidal activity MATIN: 90%
Matricaria inodora [15]; dosage 20 g/ha
  Herbicidal efficacy against MATIN: 70
Pharbitis purpureum
  Herbicidal activity PHBPU: 90%

## Cc1nnc(NC(=O)c2ccc(C(F)F)c(S(C)(=O)=O)c2C)o1 [Example 7-3]
Cyperus serotinus; dosage 80 g/ha
  Herbicidal efficacy against CYPES: 100
Cyperus serotinus; dosage 320 g/ha
  Herbicidal efficacy against CYPES: 100
  herbicidal activity CYPES: 100%
Amaranthus retroflexus [1]
  herbicidal activity AMARE: 100%
LOLMU; dosage 80 g/ha
  Herbicidal efficacy against LOLMU: 80
LOLMU; dosage 320 g/ha
  Herbicidal efficacy against LOLMU: 100
Stellaria media [2]
  Herbicidal activity STEME: 100%
Viola tricolor [3]
  herbicidal activity VIOTR: 100%
Viola tricolor [3]; dosage 20 g/ha
  Herbicidal efficacy against VIOTR: 100
Viola tricolor [3]; dosage 80 g/ha
  Herbicidal efficacy against VIOTR: 100
Alopecurus myosuroides [4]; dosage 80 g/ha
  Herbicidal efficacy against ALOMY: 90
Alopecurus myosuroides [4]; dosage 320 g/ha
  Herbicidal efficacy against ALOMY: 100
  herbicidal activity ALOMY: 100%
Veronica persica; dosage 20 g/ha
  Herbicidal efficacy against VERPE: 100
Veronica persica; dosage 80 g/ha
  Herbicidal efficacy against VERPE: 100
Abutilon theophrasti [5]
  herbicidal activity ABUTH: 100%
Setaria viridis [6]; dosage 80 g/ha
  Herbicidal efficacy against SETVI: 100
Setaria viridis [6]; dosage 320 g/ha
  Herbicidal efficacy against SETVI: 100
  herbicidal activity SETVI: 100%
Polygonum convolvulus; dosage 80 g/ha
  Herbicidal efficacy against POLCO: 40
Polygonum convolvulus; dosage 320 g/ha
  Herbicidal efficacy against POLCO: 70
Setaria viridis [7]
  herbicidal activity SETVI: 100%
Setaria viridis [7]; dosage 20 g/ha
  Herbicidal efficacy against SETVI: 90
Setaria viridis [7]; dosage 80 g/ha
  Herbicidal efficacy against SETVI: 100
Abutilon theophrasti [8]
  herbicidal activity ABUTH: 100%
Avena fatua [9]; dosage 80 g/ha
  Herbicidal efficacy against AVEFA: 90
Avena fatua [9]; dosage 320 g/ha
  Herbicidal efficacy against AVEFA: 100
  herbicidal activity AVEFA: 100%
Avena fatua [10]
  herbicidal activity AVEFA: 100%
Avena fatua [10]; dosage 20 g/ha
  Herbicidal efficacy against AVEFA: 90
Avena fatua [10]; dosage 80 g/ha
  Herbicidal efficacy against AVEFA: 100
Amaranthus retroflexus [11]
  herbicidal activity AMARE: 90%
ECHCG
  Herbicidal activity ECHCG: 90%
Viola tricolor [12]; dosage 80 g/ha
  Herbicidal efficacy against VIOTR: 100
Viola tricolor [12]; dosage 320 g/ha
  Herbicidal efficacy against VIOTR: 100
  herbicidal activity VIOTR: 100%
Stellaria media [13]
  Herbicidal activity STEME: 100%
Alopecurus myosuroides [16]; 80 g/ha, Table C
  herbicidal activity ALOMY: 100%
Alopecurus myosuroides [16]; dosage 20 g/ha
  Herbicidal efficacy against ALOMY: 60
Alopecurus myosuroides [16]; dosage 80 g/ha
  Herbicidal efficacy against ALOMY: 100
Matricaria inodora [14]
  herbicidal activity MATIN: 100%
Matricaria inodora [15]; dosage 20 g/ha
  Herbicidal efficacy against MATIN: 90
Matricaria inodora [15]; dosage 80 g/ha
  Herbicidal efficacy against MATIN: 100
Pharbitis purpureum
  Herbicidal activity PHBPU: 90%
